Test results as given in ChEMBL document CHEMBL4480415, “Design and synthesis of potent myostatin inhibitory cyclic peptides” (Bioorg Med Chem, 2019).
Where a SMILES comes first, the peptide text is derived from it. Bridges are numbered along the chain shown (N, C = ends). The star is where a group is joined. Acetyl(2-naphthyloxy) = O=C(COc1ccc2ccccc2c1)*

Assay: Aqueous solubility of compound
Format: physicochemical
Conditions: buffer

CC[C@H](C)[C@H](NC(=O)[C@H](CCCNC(=N)N)NC(=O)[C@H](CO)NC(=O)[C@H](Cc1ccc(O)cc1)NC(=O)[C@H](CCCNC(=N)N)NC(=O)[C@@H]1CSSC[C@H](NC(=O)COc2ccc3ccccc3c2)C(=O)N[C@@H](CCC(N)=O)C(=O)N[C@@H](CC(N)=O)C(=O)N1)C(=O)N[C@@H](CCC(=O)O)C(=O)N[C@@H](Cc1c[nH]c2ccccc12)C(=O)N[C@H](C(=O)N[C@@H](CCCCN)C(=O)N[C@H](C(=O)N[C@@H](CCC(N)=O)C(=O)N[C@H](C(=O)N[C@H](C(=O)N[C@@H](CO)C(=O)N[C@@H](CCCCN)C(=O)N[C@@H](CC(C)C)C(=O)N[C@@H](CCCNC(=N)N)C(=O)N[C@@H](CC(C)C)C(N)=O)[C@@H](C)CC)[C@@H](C)CC)[C@@H](C)CC)[C@@H](C)CC ({Acetyl(2-naphthyloxy)}-CQNCRYSRIEWIKIQIISKLRL-NH2; disulfide 1-4)
solubility: Insoluble
